Test [1] is described as follows: Dose ranging study of FeTyr (TYPLEX) in feed, zootechnical performance of broilers, dirty litter challenge at day 20 (Example 10). Format: in vivo, Ross 308 male broilers. The note with it: all treatment groups, in feed. The protocol:
(§1) A study was performed to evaluate growth promotion and reduction of Campylobacter carriage using FeTyr in Ross 308 male broilers with 7 treatment groups. Each treatment group comprised eight replicates of 10 birds per pen (80 birds/treatment group), with 2 control groups and […]. All the test groups and both of the control groups were exposed at day 20 of the trial to dirty litter, which tested positive for Campylobacter. This method was used to provide a more natural method to Campylobacter challenge the birds. Thus there were two positive controls where each treatment group was challenged with Campylobacter, and five treatment groups that were all challenged with Campylobacter. The total number of birds used in the 7 treatment groups was 560.
Treatment group 1 was a positive control where birds just received the commercial feed, and were challenged with dirty litter containing Campylobacter at day 20. Treatment group 2 received 0.01 g/kg of TYPLEX (FeTyr) in their feed, and were challenged with dirty litter containing Campylobacter at day 20. Treatment group 3 received 0.02 g/kg of TYPLEX (FeTyr) in their feed, and was challenged with dirty litter containing Campylobacter at day 20. Treatment group 4 received 0.05 g/kg of TYPLEX (FeTyr) in their feed, and was challenged with dirty litter containing Campylobacter at day 20. Treatment group 5 received 0.1 g/kg of TYPLEX (FeTyr) in their feed, and was challenged with dirty litter containing Campylobacter at day 20. Treatment group 6 received 0.2 g/kg of TYPLEX (FeTyr) in their feed, and was challenged with dirty litter containing Campylobacter at day 20. […] The birds were fed with a commercial three-phase feeding program using starter, grower and finisher feeds as described in Example 1. The birds were reared in floor pens to day 42, and fed starter, grower and finisher feed at day 0 to 11, 11 to 24, and 24 to 42 days, respectively. All birds were weighed individually and feed weigh backs recorded per pen at day 0, 11, 21, 24 and 42 days.
(§2) At day 20, litter, which was naturally Campylobacter-contaminated, was tested to confirm the presence of Campylobacter, and then added (approximately 2 kg/pen) to the litter in all pens. At day 42, caecal samples were taken and tested for Campylobacter, E. coli and Salmonella enumeration.
In order to minimize risk of cross-contamination, standard industry biosecurity measures were used including: disinfecting boots, changing overshoes and gloves between pens/treatments, entering Campylobacter negative pens before entering Campylobacter positive pens, and leaving adjacent pens empty. Daily health, culls, and mortality were recorded. All bird weights were recorded at 0, 11, 21, 24, 33 and 42 days. Weight gains, feed intake and feed conversion ratio (FCR) were derived for each feeding period.

In test [2] the test system is Salmonella. The test is described as follows: Salmonella cfu/g of caeca at day 42 (Example 10). The note with it: in feed. Format: in vivo. The protocol: as §1, §2
In test [3] the test system is Campylobacter. In words: Campylobacter cfu/g of caeca at day 42 (Example 10). The note with it: in feed. Format: in vivo. The protocol: as §1, §2
Test [4] relates to Campylobacter. The test is described as follows: Campylobacter carriage in chickens, cfu/g of droppings and caeca at day 42 (Example 1). Format: in vivo. The protocol: (§3) A study was performed to evaluate growth promotion and reduction of Campylobacter carriage using FeQ and FeTyr in Ross 308 male broilers with 7 treatment groups. Each treatment group comprised four replicates of 10 birds per pen (40 birds/treatment group and 4 pens of 10 birds/treatment group), with 2 control groups and 5 test groups. All the test groups and one of the control groups were exposed at day 20 of the trial to dirty litter, which tested positive for Campylobacter. This method was used to provide a more natural method to Campylobacter challenge the birds. Thus there was a positive control where one treatment group was challenged with Campylobacter and one negative control group where the birds were not challenged, and five treatment groups that were all challenged with Campylobacter. The total number of birds used in the 7 treatment groups was 280. Treatment group 1 was a negative control where birds just received the commercial feed, and were not challenged with dirty litter containing Campylobacter. Treatment group 2 was the positive control where the birds received the commercial feed, and were challenged with dirty litter containing Campylobacter at day 20. Treatment group 3 received 0.22 g/L of FeQ in their drinking water and 0.22 g/Kg FeQ in their feed during the entire trial, and was challenged with dirty litter containing Campylobacter at day 20. Treatment group 5 received 0.22 g/L of FeQ in their drinking water during the entire trial, and was challenged with dirty litter containing Campylobacter at day 20. Treatment group 6 received 0.22 g/kg FeQ in their feed during the entire trial, and was challenged with dirty litter containing Campylobacter at day 20. Treatment group 7 received 0.022 g/L FeQ in their drinking water during the entire trial, and was challenged with dirty litter containing Campylobacter at day 20. Treatment group 8 received 0.02 g/L FeTyr in their drinking water during the entire trial, and was challenged with dirty litter containing Campylobacter at day 20. The FeTyr was pre-dissolved in DMSO, and diluted to provide a solution of 0.02 g/L of FeTyr in water. (An additional treatment group 4 was terminated due to solubility issues.)
(§4) Prior to challenging the chickens with dirty litter containing Campylobacter at day 20, each pen was tested for Campylobacter using cloacal swabs. All pens tested negative for Campylobacter prior to the challenge. At day 20, litter, which was naturally Campylobacter-contaminated, was tested to confirm the presence of Campylobacter, and then added (approximately 2 kg/pen) to the litter in all pens except in pens for treatment group 1 (the negative control). At day 28, the pen litter was sampled to confirm the presence or absence of Campylobacter. At day 41 and 42, caecal samples were taken from 3 birds per pen (12 birds per treatment group) and tested for Campylobacter enumeration. At day 42, digesta, fecal samples, and caecal content was taken from all birds, and pooled per pen. Two birds per pen were also taken from treatment groups 1-3, euthanized, and blood samples taken. Samples were analyzed for blood chemistry, including analysis for alkaline phosphatase, aspartate amino transferase, alanine amino transferase, gamma-glutamyl transferase, lactate dehydrogenase, total protein, albumin, globulin, amylase and glucose.

Test [5] in a line: Growth performance of broilers given FeQ or FeTyr in water/feed, dirty litter Campylobacter challenge at day 20 (Example 1). Format: in vivo, Ross 308 male broilers. The protocol: as §3
The birds were fed with a commercial three-phase feeding program using starter, grower and finisher feeds with formulations shown in Table 2. All diets had coccidiostat (MAXIBAN® at 0.0625% in starter and […] and MONTEBAN® at 0.06% in finisher phase). Xylanase (RONOZYME® WX at 200 g per ton) and phytase (RONOZYME® P at 150 grams per ton) were added to all diets.
The feeding program is show in Table 3. The birds were reared in floor pens to day 42, and fed starter, grower and finisher feed at day 0 to 11, 11 to 24, and 24 to 42 days, respectively. All birds were weighed individually and feed weigh backs recorded per pen at day 0, 11, 21, 24 and 42 days.
as §4, with “Samples were analyzed for blood chemistry, including analysis for alkaline phosphatase, aspartate amino transferase, alanine amino transferase, gamma-glutamyl transferase, lactate dehydrogenase, total protein, albumin, globulin, amylase and glucose.” left out

Test [6] relates to E. coli. In words: E. coli cfu/g of caeca at day 42 (Example 10). It is filed as in vivo. The procedure:
as §1, §2

Here are results for one molecule from US10653658B2, “Biofilm inhibiting compositions enhancing weight gain in livestock” (Akeso Biomedical, Inc., priority 2015, dated 2020).

Turning to `N[C@@H](Cc1ccc(O)cc1)C(=O)O.[Fe+3]` [FeTyr, ferric tyrosine], in test [1], the “MFCR at day 42 compared to control group (FIG. 13)” value is given as “improved MFCR values” and the “average body weight at day 42 compared with control group (FIG. 12)” value is reported as “higher average body weight”. In addition, the “Salmonella cfu/g of caeca at day 42 (FIG. 15)” value in test [2] was “positive effect on reducing Campylobacter infection”. Further, the “Campylobacter cfu/g of caeca at day 42 (FIG. 14)” value in test [3] is listed as “positive effect on reducing Campylobacter infection”. Moreover, in test [4] (treatment groups 3 and 5-8), the “Campylobacter cfu/g of caeca samples at day 42 compared with positive control (FIG. 4)” value is “positive effect on reducing Campylobacter infection”. In addition, the “Campylobacter cfu/g of bird droppings at day 42 compared with positive control (FIG. 3)” value in test [4] (treatment groups 3 and 6-8) is given as “positive effect on reducing Campylobacter infection”. The “effect on growth performance in the absence of Campylobacter challenge, first 20 days” value in test [5] (compared with control groups 1 and 2) was “positive effect”. Further, the “effect on MFCR at day 42 compared with positive control (FIG. 2)” value in test [5] (treatment groups 3, 5, 6, 7 and 8, challenged with dirty litter) is given as “positive effect on MFCR”. Moreover, the “effect on growth: average body weight at day 42 compared with positive control (FIG. 1)” value in test [5] (treatment groups 3, 5, 6, 7 and 8, challenged with dirty litter containing Campylobacter) is “positive effect on growth”. In addition, in test [6] (in feed), the “E. coli cfu/g of caeca at day 42 (FIG. 16)” value is “positive effect on reducing Campylobacter infection”. The “levels of E. coli in poultry upon treatment” value in test [6] (poultry data) is recorded as “lower levels of E. coli”.
